In patent US11920157B2, “Applications of butylidenephthalide” (NATIONAL DONG HWA UNIVERSITY, priority 2016, dated 2024):

How the values were obtained:
UCP1 = UCP1 gene (RT-PCR) and UCP1 protein (Western blot) expression in adipose cells; type: cell-based; settings: 7 days
Procedure: (§1) The adipose cells provided by Example B1-2 were divided into seven groups and independently subjected to the following treatments:
(1) Control group: cells were cultivated in a conditional medium provided by A1 for 7 days;
(§2) (3) BP-10 group: cells were cultivated in a conditional medium that was externally added with butylidenephthalide (BP) (to a final concentration of 10 μg/mL) for 7 days;
(5) Tofacitinib group: cells were cultivated in a conditional medium that was externally added with tofacitinib (to a final concentration of 2 μM) for 7 days (tofacitinib was purchased from UNI-ONWARD Corp. (Taiwan); product number: PZ0017);
(6) Adenosine group: cells were cultivated in a conditional medium that was externally added with adenosine (to a final concentration of 1 μM) for 7 days (adenosine was purchased from UNI-ONWARD Corp. (Taiwan); product number: A4036); and
(7) Proanthocyanidin group: cells were cultivated in a conditional medium that was externally added with proanthocyanidin (to a final concentration of 10 μM) for 7 days (adenosine was purchased from Hong Jing Co., Ltd. (Taiwan); product number: sc-344976).
The cells in each group provided by Example B1-3 were separately collected, and then the total RNA and protein of the cells were individually extracted for the following experimentation.
The total RNA was subjected to reverse transcription to provide cDNA, and then the expression of UCP1 gene of the cells in each group was analyzed by reverse transcription polymerase chain reaction (RT-PCR). The results are shown in FIG. 4A, wherein FABP4 gene was a biomarker of mature adipose cells, and thus, it was used as an internal control of adipose cells in this experimentation. The actin gene was used as an internal control of all the cells. Furthermore, the expression of UCP1 protein of the cells in each group was analyzed by Western blot. The results are shown in FIG. 4B, wherein FABP4 protein was used as an internal control of adipose cells. The actin was used as an internal control of all the cells.

C57BL/6 mice [1] = assay: Contents of glucose, triglycerides and total cholesterol in blood of high fat diet mice; type: in vivo
Procedure: (§3) The C57BL/6 mice (purchased from National Laboratory Animal Center, Taiwan) were bred in Laboratory Animal Center of China Medical University, Taiwan (conditions: 3 mice were bred per cage; the temperature of the breeding room ranged from 20° C. to 24° C., and the relative humidity ranged from 50% to 70%; the light cycle was 12 hours; sufficient water and normal diet were supplied daily) until they were 4 weeks old. Then, the mice were randomly divided into seven groups (six mice per group), and individually subjected to the following treatment and experimentation:
(§4) (3) Oral administration of butylidenephthalide (BP) group (i.e., “HFD+BP” group): the mice were continuously fed with a high fat diet, and then simultaneously administered with butylidenephthalide (BP) by oral route at the beginning of the ninth week (dosage amount: every day, 250 mg/kg-body weight) until they were 18 weeks old.
(§5) (4) Cell infusion of adipose stem cells group (i.e., “HFD+ADSC” group): the mice were continuously fed with a high fat diet, and then simultaneously administered with adipose stem cells by intravenous injection at the beginning of the eleventh week (dosage amount: every two weeks, 4×10^5 cells suspended in 100˜150 μL of normal saline) until they were 18 weeks old (four injections in total).
(5) Oral administration of butylidenephthalide (BP) in combination with cell infusion of adipose stem cells group (i.e., “HFD+BP+ADSC” group): the mice were continuously fed with a high fat diet, then simultaneously administered with butylidenephthalide (BP) by oral route at the beginning of the ninth week (dosage amount: every day, 250 mg/kg-body weight), and further simultaneously administered with adipose stem cells by intravenous injection at the beginning of the eleventh week (dosage amount: every two weeks, 4×10^5 cells suspended in 100˜150 μL of normal saline) until they were 18 weeks old (four injections in total).
(6) Cell infusion of brown-like adipose cells group (i.e., “HFD+BLC” group): the mice were fed with a high fat diet, and then simultaneously administered with brown-like adipose cells provided by Example 1 by intravenous injection at the beginning of the eleventh week (dosage amount: every two weeks, 4×10^5 cells suspended in 100˜150 μL of normal saline) until they were 18 weeks old (four injections in total).
(7) Oral administration of butylidenephthalide (BP) in combination with cell infusion of brown-like adipose cells group (i.e., “HFD+BP+BLC” group): the mice were continuously fed with a high fat diet, then simultaneously administered with butylidenephthalide (BP) by oral route (dosage amount: every day, 250 mg/kg-body weight) at the beginning of the ninth week, and further simultaneously administered with brown-like adipose cells provided by Example 1 by intravenous injection at the beginning of the eleventh week (dosage amount: every two weeks, 4×10^5 cells suspended in 100˜150 μL of normal saline) until they were 18 weeks old (four injections in total).
B2-2. After Example B2-1 was accomplished, the mice was subjected to fast for 12 hours, and then the blood of mice was collected in a serum tube by cardic blood collection. The collected blood was stand for 30 minutes, and then subjected to centrifuge at 3000 rpm, 4° C. for 10 minutes. The supernatant thus provided was collected (i.e., blood sample) and kept at a temperature of 4° C. for following experimentation and analysis.
To understand whether butylidenephthalide (BP) is effective in reducing the contents of glucose, triglycerides and total cholesterol in blood or not, the blood sample of mice in each group provided by Example B2-2 was detected by a SYSMEX K-1000 and TOSHIBA TBA200FA automatic blood analyzer to analyze the contents of glucose, triglycerides and total cholesterol in blood of mice. The results of each group were averaged. Based on the result of “HFD” group, the relative contents of glucose, triglycerides and total cholesterol of each group were calculated.

C57BL/6 mice [2] = assay: Accumulation of white fat: organ appearance and weight of subcutaneous and visceral adipose tissue of high fat diet mice; type: in vivo
Procedure: as §3, §4, §5
(5) Oral administration of butylidenephthalide (BP) in combination with cell infusion of adipose stem cells group (i.e., “HFD+BP+ADSC” group): the mice were continuously fed with a high fat diet, then simultaneously administered with butylidenephthalide (BP) by oral route at the beginning of the ninth week (dosage amount: every day, 250 mg/kg-body weight), and further simultaneously administered with adipose stem cells by intravenous injection at the beginning of the eleventh week (dosage amount: every two weeks, 4×10^5 cells suspended in 100˜150 μL of normal saline) until they were 18 weeks old (four injections in total). […]
B2-3. […] The weight of the subcutaneous adipose tissue and visceral adipose tissue of mice were measured and recorded, and the collected organs were kept at a temperature of −80° C. for following experimentation and analysis.
To understand whether butylidenephthalide (BP) can alleviate the accumulation of white fat or not, the photos of appearances of the liver, heart, kidney, subcutaneous adipose tissue and visceral adipose tissue of mice in each group recorded in Example B2-3 are shown in FIG. 6A. The weight of subcutaneous adipose tissue and visceral adipose tissue of mice in each group recorded in Example B2-3 were respectively averaged.

C57BL/6 mice [3] = assay: Fat browning in subcutaneous and visceral adipose tissue slices of high fat diet mice (H&E stain); type: in vivo; settings: 18 weeks old, BP oral 250 mg/kg-body weight daily from week 9, cells i.v. 4×10^5 every two weeks from week 11, vs HFD group
Procedure: as §3
(§6) (3) Oral administration of butylidenephthalide (BP) group (i.e., “HFD+BP” group): the mice were continuously fed with a high fat diet, and then simultaneously administered with butylidenephthalide (BP) by oral route at the beginning of the ninth week (dosage amount: every day, 250 mg/kg-body weight) until they were 18 weeks old. […]
B2-3. […] The weight of the subcutaneous adipose tissue and visceral adipose tissue of mice were measured and recorded, and the collected organs were kept at a temperature of −80° C. for following experimentation and analysis. […]

adipose cells = assay: Oxygen consumption rate and spare respiratory capacity of adipose cells (XF24 extracellular flux analyser); type: cell-based; settings: 7 days, vs differentiated adipose cells not treated by BP
Excerpt: As described above, different from white adipose cells, the morphology of brown-like adipose cells/brown adipose cells is characterized by (i) containing numerous adipose droplets, (ii) containing a large number of mitochondria and (iii) having highly expressed uncoupling protein 1 (UCP1). […] Therefore, the number and proportion of brown-like adipose cells/brown adipose cells can be conceived by observing the number of adipose droplets in the cells, the oxygen consumption rate of adipose cells and the gene and protein expressions of UCP1.
After a medium was replaced with a fresh medium, the cells were continuously cultivated at 37° C. for 1 hour. Then, the mitochondrial biosynthesis of cells in each group was separately interfered with 25 μM oligomycin, 0.5 μM FCCP and 5 μM rotenone/antimycin A sequentially, and was continuously detected by a XF24 extracellular flux analyser (purchased from Seahorse Bioscience) prior to and during conduction of the aforementioned interference. The oxygen tension and acidification degree in the culture medium were detected by an adjusted probe to further calculate the oxygen consumption rate and spare respiratory capacity. The results of oxygen consumption rate are shown in FIG. 3A, and the results of basic oxygen consumption rate and spare respiratory capacity are shown in FIG. 3B.

[4] = Change of mouse weight in high fat diet mice; type: in vivo; settings: vs HFD group
Procedure: as §3, §6
B2-1. In the preparation process of above Example A2, the weight change of mice was recorded every week until they were 18 weeks old.
To understand whether butylidenephthalide (BP) is effective in inhibiting weight gain or not, the average value of the recorded weights of mice in each group of Example B2-1 was obtained weekly.

adipose stem cells = assay: Production of adipose droplets in adipose cells differentiated from adipose stem cells (microscope morphology, oil red stain); type: cell-based; settings: 7 days
Procedure: A DMEM medium (brand name: GIBCO; product number: 11965092) was used as a basic medium, and rosiglitazone (concentration: 0.5 μM, solvent: dimethyl sulfoxide (DMSO)), insulin (concentration: 170 nM, solvent: culture medium), 3-isobutyl-1-methylxanthine (IBMX; concentration: 0.5 μM, solvent: DMSO) and dexamethasone (concentration: 1 μM, solvent: DMSO) were externally added therein to provide a conditional medium.
The adipose stem cells (ADSCs) were cultivated in a DMEM/F12 medium at 37° C., 5% CO2 for 5 days. […] The results are shown in FIG. 1 (i.e., adipose stem cells (undifferentiated)).
The aforementioned pre-cultivated adipose stem cells provided by Example B1-1 were cultivated in a conditional medium provided by Example A1 at 37° C., 5% CO2 for 7 days to differentiate into adipose cells. […] The results are also shown in FIG. 1 (i.e., adipose cells (differentiated)).
as §1
(2) BP-2 group: cells were cultivated in a conditional medium that was externally added with butylidenephthalide (BP) (to a final concentration of 2 μg/mL) for 7 days (butylidenephthalide (BP) was purchased from ECHO CHEMICAL Co., Ltd. (Taiwan); product number: A10353);
as §2
(4) BP-50 group: cells were cultivated in a conditional medium that was externally added with butylidenephthalide (BP) (to a final concentration of 50 μg/mL) for 7 days;
First, the cell morphology of each group in photos taken in Examples B1-1, B1-2 and B1-3 was observed.
Thereafter, the adipose droplets of adipose stem cells (undifferentiated) provided by Example B1-1, adipose cells (differentiated) provided by Example B1-2 and adipose cells in “BP-2 group”, “BP-10 group” and “BP-50 group” provided by Example B1-3 were stained by oil red dye, and the morphology thereof was taken photos and recorded. Then, the number of adipose droplets of adipose cells in each group was quantified.

[5] = based on the result of HFD group (100)
[6] = high fat diet mice, 18 weeks old, fasted 12 hours, BP oral 250 mg/kg-body weight daily, cells i.v. 4×10^5 every two weeks
[7] = high fat diet mice, vs HFD group
[8] = 18 weeks old, BP oral 250 mg/kg-body weight daily from week 9, cells i.v. 4×10^5 every two weeks from week 11

## CCCC=C1OC(=O)c2ccccc21 [BP, butylidenephthalide]
UCP1; BP 10 μg/mL vs tofacitinib 2 μM, adenosine 1 μM, proanthocyanidin 10 μM
  increments of UCP1 gene and UCP1 protein compared with known drugs: higher than that of tofacitinib group, adenosine group and proanthocyanidin group
UCP1; BP 10 μg/mL, vs control group
  expression of UCP1 gene (RT-PCR, FIG. 4A): significantly increased
  expression of UCP1 protein (Western blot, FIG. 4B): significantly increased
C57BL/6 mice [1]; [5]
  Relative content of glucose: 85
  Relative content of total cholesterol: 80
  Relative content of triglycerides: 84
C57BL/6 mice [1]; [6]
  Glucose (serum): 411.50 ± 43.50 mg/dL
  Total cholesterol (serum): 157.50 ± 1.50 mg/dL
  Triglycerides (serum): 213.50 ± 50.50 mg/dL
C57BL/6 mice [1]; [7]
  content of glucose in blood, in words: significantly lower
  content of total cholesterol in blood (FIG. 8C; printed as triglycerides), in words: significantly lower
  content of triglycerides in blood, in words: significantly lower
C57BL/6 mice [2]; [8]
  Subcutaneous adipose tissue (weight, average): 0.24 g
  Visceral adipose tissue (weight, average): 0.57 g
C57BL/6 mice [2]; vs HFD group
  accumulation condition of white fat in visceral (appearance, FIG. 6A): significantly alleviated
  weights of subcutaneous fat and visceral fat, in words: significantly lower
C57BL/6 mice [3]
  cell morphology of subcutaneous and visceral adipose tissue (FIGS. 5A, 5B): contained the brown adipose cells with numerous small adipose droplets
Adipose cells; BP 2 μg/mL
  oxygen consumption rate (FIG. 3A): higher oxygen consumption rate
  spare respiratory capacity (FIG. 3B): higher
Adipose cells; BP 10 μg/mL
  oxygen consumption rate (FIG. 3A): higher oxygen consumption rate
  spare respiratory capacity (FIG. 3B): higher
Adipose cells; BP 50 μg/mL
  oxygen consumption rate (FIG. 3A): higher oxygen consumption rate
  spare respiratory capacity (FIG. 3B): higher
[4]
  weights of mice (weight gain, 9 to 18 weeks old, FIG. 7): increased significantly less
Adipose stem cells; BP 2 μg/mL, vs adipose cells not treated by BP
  content of adipose droplets (oil red stain, FIGS. 2A, 2B): contained more adipose droplets
Adipose stem cells; BP 10 μg/mL in conditional medium, vs undifferentiated adipose stem cells and differentiated adipose cells
  adipose droplets in cells (microscope morphology, FIG. 1): contained more adipose droplets
Adipose stem cells; BP 10 μg/mL, vs adipose cells not treated by BP and other BP groups
  content of adipose droplets (oil red stain, FIGS. 2A, 2B): highest content of adipose droplets
Adipose stem cells; BP 50 μg/mL, vs adipose cells not treated by BP
  content of adipose droplets (oil red stain, FIGS. 2A, 2B): contained more adipose droplets
